Assay results from patent US11028075B2, “Therapeutic compounds and methods of use thereof” (GENENTECH, INC., priority 2018, dated 2021).
Where a name gives a salt, the structure may show the parent alone.

Legend:
hNav1.7 [1] = target: T1, hNav1.7 (Homo sapiens (Human), UniProt Q15858); experiment: Tritiated compound binding to membranes from cells heterologously expressing hNav1.7 and the β1 subunit (Nav1.7 LBA); settings: competitive binding vs [3H]compound, membranes with hNav1.7 and β1 subunit; read-out: Nav1.7 LBA EVO IC50
How it was run: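 Membranes from cells expressing hNav1.7 with β1 were incubated at room temperature with a tritiated competitive Nav1.7 inhibitor plus test compound in 100 mM NaCl, 20 mM Tris pH 7.4, 0.01% BSA; nonspecific binding was set with 1 μM unlabeled compound. Incubation was 18 h with […] radioligand, or 3 h with […]. Bound ligand was filtered and counted, and IC50 came from a 4-parameter fit.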
Target sequence in this assay (Q15858 whole entry, looked up): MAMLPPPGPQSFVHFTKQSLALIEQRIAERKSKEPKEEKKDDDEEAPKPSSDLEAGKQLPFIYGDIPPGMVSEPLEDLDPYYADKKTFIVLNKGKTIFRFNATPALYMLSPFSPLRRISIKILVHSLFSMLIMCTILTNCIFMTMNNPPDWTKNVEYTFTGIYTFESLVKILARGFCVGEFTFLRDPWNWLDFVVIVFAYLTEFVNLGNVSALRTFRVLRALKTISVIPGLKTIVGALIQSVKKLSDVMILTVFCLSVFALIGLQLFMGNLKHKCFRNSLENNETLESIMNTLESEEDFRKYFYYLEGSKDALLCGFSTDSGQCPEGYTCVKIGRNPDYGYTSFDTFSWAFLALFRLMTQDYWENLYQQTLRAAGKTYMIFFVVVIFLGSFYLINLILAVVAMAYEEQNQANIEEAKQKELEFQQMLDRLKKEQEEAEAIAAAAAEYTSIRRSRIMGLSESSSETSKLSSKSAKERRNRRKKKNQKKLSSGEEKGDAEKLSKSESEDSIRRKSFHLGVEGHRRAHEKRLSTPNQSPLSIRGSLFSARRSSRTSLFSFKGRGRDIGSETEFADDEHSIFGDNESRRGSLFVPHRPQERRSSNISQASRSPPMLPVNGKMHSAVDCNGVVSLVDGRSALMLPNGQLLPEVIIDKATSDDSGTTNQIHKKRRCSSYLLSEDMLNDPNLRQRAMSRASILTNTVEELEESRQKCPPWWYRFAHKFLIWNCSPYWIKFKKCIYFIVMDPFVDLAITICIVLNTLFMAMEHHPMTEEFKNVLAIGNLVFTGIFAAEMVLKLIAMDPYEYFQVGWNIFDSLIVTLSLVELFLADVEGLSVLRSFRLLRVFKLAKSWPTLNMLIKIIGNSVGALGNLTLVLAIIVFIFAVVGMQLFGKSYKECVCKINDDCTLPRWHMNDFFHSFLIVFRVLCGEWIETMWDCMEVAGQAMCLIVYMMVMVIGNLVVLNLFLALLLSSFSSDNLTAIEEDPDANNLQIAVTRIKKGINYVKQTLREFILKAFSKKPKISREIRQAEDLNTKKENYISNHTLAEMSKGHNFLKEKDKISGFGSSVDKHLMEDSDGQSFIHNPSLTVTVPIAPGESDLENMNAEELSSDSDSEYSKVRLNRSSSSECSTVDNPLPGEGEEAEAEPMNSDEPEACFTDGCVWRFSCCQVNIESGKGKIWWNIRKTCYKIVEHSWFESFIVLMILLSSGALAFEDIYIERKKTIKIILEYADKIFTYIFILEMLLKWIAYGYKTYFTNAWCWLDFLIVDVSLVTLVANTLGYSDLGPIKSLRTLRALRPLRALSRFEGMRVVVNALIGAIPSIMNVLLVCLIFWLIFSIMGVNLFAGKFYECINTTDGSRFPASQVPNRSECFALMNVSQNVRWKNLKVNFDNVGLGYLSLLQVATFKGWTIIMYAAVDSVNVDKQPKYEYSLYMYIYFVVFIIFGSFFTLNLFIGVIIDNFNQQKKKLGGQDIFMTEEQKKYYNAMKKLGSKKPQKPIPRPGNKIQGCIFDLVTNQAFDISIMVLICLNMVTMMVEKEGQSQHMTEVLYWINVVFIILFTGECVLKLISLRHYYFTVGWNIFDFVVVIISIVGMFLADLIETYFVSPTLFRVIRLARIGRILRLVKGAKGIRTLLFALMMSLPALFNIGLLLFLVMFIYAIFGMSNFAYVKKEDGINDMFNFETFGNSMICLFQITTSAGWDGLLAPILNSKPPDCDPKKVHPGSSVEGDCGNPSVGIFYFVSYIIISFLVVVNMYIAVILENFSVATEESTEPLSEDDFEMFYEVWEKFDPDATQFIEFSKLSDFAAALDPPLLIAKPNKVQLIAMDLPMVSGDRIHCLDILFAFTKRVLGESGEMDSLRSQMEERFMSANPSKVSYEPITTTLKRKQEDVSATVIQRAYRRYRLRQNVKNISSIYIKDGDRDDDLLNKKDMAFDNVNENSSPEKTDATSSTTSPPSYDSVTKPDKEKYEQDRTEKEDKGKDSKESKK
Target sequence in this assay (Q07699 whole entry partner, looked up): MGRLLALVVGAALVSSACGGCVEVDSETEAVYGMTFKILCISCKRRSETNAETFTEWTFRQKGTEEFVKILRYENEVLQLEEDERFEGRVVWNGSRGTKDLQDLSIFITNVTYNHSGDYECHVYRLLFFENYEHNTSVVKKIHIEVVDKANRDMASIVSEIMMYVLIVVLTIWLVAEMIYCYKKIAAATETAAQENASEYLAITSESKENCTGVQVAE

hNav1.7 [2] = target: T1, hNav1.7; experiment: Electrophysiological assay (EP), voltage clamp on Syncropatch 384PE, CHO cells stably expressing Nav1.7; format: cell-based; settings: holding potential −50 mV, 7.5 min compound incubation, read-out: EP_SP hNav1.7 EVO IC50
How it was run: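 Whole-cell automated patch clamp was run on CHO cells stably expressing human Nav1.7 cDNA, with internal solution CsCl/EGTA pH 7.2, external solution 80 mM NaCl pH 7.4, and 0.1% Pluronic F-127. From a −50 mV holding potential: −10 mV for 10 ms, −150 mV for 20 ms, then −10 mV for 10 ms, where current was measured. Inhibition was taken after 7.5 min compound incubation, with TTX added for full block.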
Target sequence in this assay (Q15858 other isoform, or with tags, fused parts or gaps): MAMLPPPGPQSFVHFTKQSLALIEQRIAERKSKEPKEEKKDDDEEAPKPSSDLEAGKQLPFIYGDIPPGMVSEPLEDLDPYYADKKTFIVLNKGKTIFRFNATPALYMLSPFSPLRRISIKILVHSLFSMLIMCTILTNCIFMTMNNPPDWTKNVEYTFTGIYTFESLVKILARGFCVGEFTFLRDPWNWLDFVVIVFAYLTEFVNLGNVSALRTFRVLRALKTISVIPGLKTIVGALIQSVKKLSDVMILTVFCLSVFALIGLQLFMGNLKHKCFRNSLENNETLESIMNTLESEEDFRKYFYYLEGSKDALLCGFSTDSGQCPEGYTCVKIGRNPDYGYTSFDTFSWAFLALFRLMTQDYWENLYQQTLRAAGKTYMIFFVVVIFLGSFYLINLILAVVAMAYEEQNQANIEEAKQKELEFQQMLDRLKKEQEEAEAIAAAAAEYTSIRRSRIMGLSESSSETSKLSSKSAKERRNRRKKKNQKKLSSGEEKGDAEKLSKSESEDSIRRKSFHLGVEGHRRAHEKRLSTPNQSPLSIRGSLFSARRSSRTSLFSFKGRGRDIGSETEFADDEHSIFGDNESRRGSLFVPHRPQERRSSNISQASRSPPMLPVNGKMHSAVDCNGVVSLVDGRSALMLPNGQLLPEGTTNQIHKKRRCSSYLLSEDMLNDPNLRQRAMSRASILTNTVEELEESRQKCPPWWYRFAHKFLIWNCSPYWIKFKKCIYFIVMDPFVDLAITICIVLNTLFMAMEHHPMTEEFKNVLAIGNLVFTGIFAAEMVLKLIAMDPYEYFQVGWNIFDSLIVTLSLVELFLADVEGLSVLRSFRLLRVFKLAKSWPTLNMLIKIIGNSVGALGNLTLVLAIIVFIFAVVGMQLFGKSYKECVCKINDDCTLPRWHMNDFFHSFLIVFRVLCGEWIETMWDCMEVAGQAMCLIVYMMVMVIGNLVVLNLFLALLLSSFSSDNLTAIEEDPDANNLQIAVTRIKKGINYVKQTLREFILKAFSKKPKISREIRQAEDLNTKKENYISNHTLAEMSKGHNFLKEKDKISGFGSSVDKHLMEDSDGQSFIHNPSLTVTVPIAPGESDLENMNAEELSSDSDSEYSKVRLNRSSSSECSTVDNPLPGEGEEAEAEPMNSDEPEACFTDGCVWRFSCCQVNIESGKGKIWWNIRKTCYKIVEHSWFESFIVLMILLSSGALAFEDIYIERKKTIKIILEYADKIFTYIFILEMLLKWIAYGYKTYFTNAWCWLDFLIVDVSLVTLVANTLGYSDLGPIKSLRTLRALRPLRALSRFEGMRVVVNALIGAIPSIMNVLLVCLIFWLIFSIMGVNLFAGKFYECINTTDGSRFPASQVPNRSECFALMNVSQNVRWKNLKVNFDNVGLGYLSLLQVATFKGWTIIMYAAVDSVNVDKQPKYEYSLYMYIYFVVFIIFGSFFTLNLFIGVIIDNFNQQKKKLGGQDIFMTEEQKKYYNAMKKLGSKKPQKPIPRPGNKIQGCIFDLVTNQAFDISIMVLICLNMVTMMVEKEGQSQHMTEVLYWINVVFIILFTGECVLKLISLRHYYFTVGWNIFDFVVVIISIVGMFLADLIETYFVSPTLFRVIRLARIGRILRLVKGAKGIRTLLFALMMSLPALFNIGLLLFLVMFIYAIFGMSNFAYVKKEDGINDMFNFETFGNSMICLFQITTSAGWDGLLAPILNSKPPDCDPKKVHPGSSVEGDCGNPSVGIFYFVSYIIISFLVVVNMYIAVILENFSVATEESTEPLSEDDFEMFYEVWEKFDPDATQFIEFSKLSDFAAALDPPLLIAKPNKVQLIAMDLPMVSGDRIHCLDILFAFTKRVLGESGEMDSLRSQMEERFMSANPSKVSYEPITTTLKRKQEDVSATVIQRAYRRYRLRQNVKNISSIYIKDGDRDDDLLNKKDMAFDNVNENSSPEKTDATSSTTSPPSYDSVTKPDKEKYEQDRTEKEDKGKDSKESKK

| SMILES | IC50 (hNav1.7 [1]) [nM] | IC50 (hNav1.7 [2]) [nM] |
| --- | --- | --- |
| CN1CC(C(=O)N(C)[C@H]2C[C@@H](c3cccc(C(F)(F)F)c3)CC[C@@H]2Nc2cc(F)c(S(=O)(=O)Nc3ccncn3)cc2Cl)C1 [Example 39, N-((1S,2S,5S)-2-((2-Chloro-5-fluoro-4-(N-(pyrimidin-4-yl)sulfamoyl)phenyl)amino)-5-(3-(trifluoromethyl)phenyl)cyclohexyl)-N,1-dimethylazetidine-3-carboxamide] | 2.07 | 0.83 |
| CN(C1CCC1)[C@H]1C[C@@H](c2cccc(C(F)(F)F)c2)CC[C@@H]1Nc1cc(F)c(S(=O)(=O)Nc2ccncn2)cc1F [Example 40, 4-(((1S,2S,4S)-2-(cyclobutyl(methyl)amino)-4-(3-(trifluoromethyl)phenyl)cyclohexyl)amino)-2,5-difluoro-N-(pyrimidin-4-yl)benzenesulfonamide formate] | 8.03 | 0.905 |
| CN(CCO)[C@H]1C[C@@H](c2cccc(C(F)(F)F)c2)CC[C@@H]1Nc1cc(F)c(S(=O)(=O)Nc2ccncn2)cc1Cl [Example 41, 5-chloro-2-fluoro-4-(((1S,2S,4S)-2-((2-hydroxyethyl)(methyl)amino)-4-(3-(trifluoromethyl)-phenyl)cyclohexyl)amino)-N-(pyrimidin-4-yl)benzenesulfonamide] | 0.623 | 0.534 |
| CN(C1CNC1)[C@H]1C[C@@H](c2cccc(C(F)(F)F)c2)CC[C@@H]1Nc1cc(F)c(S(=O)(=O)Nc2ccncn2)cc1Cl [Example 42, 4-(((1S,2S,4S)-2-(azetidin-3-yl(methyl)amino)-4-(3-(trifluoromethyl)phenyl)cyclohexyl)-amino)-5-chloro-2-fluoro-N-(pyrimidin-4-yl)benzenesulfonamide] | 0.657 | 0.141 |
| CN(C)[C@H]1C[C@@H](c2cccc(OC3CC3)c2)CC[C@@H]1Nc1cc(F)c(S(=O)(=O)Nc2ccncn2)cc1Cl [Example 43] | 7 | 1.12 |
| CN(C)[C@H]1C[C@@H](c2cccc(C3COC3)c2)CC[C@@H]1Nc1cc(F)c(S(=O)(=O)Nc2ccncn2)cc1Cl [Example 44, 5-chloro-4-(((1S,2S,4S)-2-(dimethylamino)-4-(3-(oxetan-3-yl)phenyl)cyclohexyl)amino)-2-fluoro-N-(pyrimidin-4-yl)benzenesulfonamide] | 45.8 | 9.11 |
| CN1CC(N(C)[C@H]2C[C@@H](c3cccc(C(F)(F)F)c3)CC[C@@H]2Nc2cc(F)c(S(=O)(=O)Nc3ccncn3)cc2Cl)C1 [Example 45, 5-chloro-2-fluoro-4-(((1S,2S,4S)-2-(methyl(1-methylazetidin-3-yl)amino)-4-(3-(trifluoromethyl)phenyl)cyclohexyl)amino)-N-(pyrimidin-4-yl)benzenesulfonamide] | 0.399 | 0.241 |
| O=S(=O)(Nc1ccncn1)c1cc(O)c(N[C@H]2CC[C@H](c3cccc(C(F)(F)F)c3)C[C@@H]2N2CCCC2)cc1F [Example 46, 2-Fluoro-5-hydroxy-N-(pyrimidin-4-yl)-4-(((1S,2S,4S)-2-(pyrrolidin-1-yl)-4-(3-(trifluoromethyl)-phenyl)cyclohexyl)amino)benzenesulfonamide formate] | 24.5 | 1.9 |
| O=S(=O)(Nc1ccncn1)c1cc2c(cc1F)N([C@H]1CC[C@H](c3cccc(C(F)(F)F)c3)C[C@@H]1N1CCCC1)CCO2 [Example 47, 6-Fluoro-N-(pyrimidin-4-yl)-4-((1S,2S,4S)-2-(pyrrolidin-1-yl)-4-(3-(trifluoromethyl)phenyl)-cyclohexyl)-3,4-dihydro-2H-benzo[b][1,4]oxazine-7-sulfonamide] | 0.794 | 1.16 |
| CN(C)[C@H]1C[C@@H](c2cccc(C(F)(F)F)c2)CC[C@@H]1Oc1cc(F)c(S(=O)(=O)Nc2ccncn2)cc1F [Example 48, 4-(((1S,2S,4S)-2-(dimethylamino)-4-(3-(trifluoromethyl)phenyl)cyclohexyl)oxy)-2,5-difluoro-N-(pyrimidin-4-yl)benzenesulfonamide formate] | 37.7 | 3.34 |
| O=C1COc2cc(S(=O)(=O)Nc3ccncn3)c(F)cc2N1[C@H]1CC[C@H](c2cccc(C(F)(F)F)c2)C[C@@H]1N1CCCC1 [Example 49, 6-Fluoro-3-oxo-N-(pyrimidin-4-yl)-4-((1S,2S,4S)-2-(pyrrolidin-1-yl)-4-(3-(trifluoromethyl)-phenyl)cyclohexyl)-3,4-dihydro-2H-benzo[b][1,4]oxazine-7-sulfonamide] | 23.6 | 2.73 |
| O=S(=O)(Nc1ccncn1)c1cc(F)c(N[C@H]2CC[C@H](c3cc(C(F)(F)F)ccc3F)C[C@@H]2N2CCCC2)cc1F [Example 50, 2,5-difluoro-4-(((1S,2S,4S)-4-(2-fluoro-5-(trifluoromethyl)phenyl)-2-(pyrrolidin-1-yl)cyclohexyl)amino)-N-(pyrimidin-4-yl)benzenesulfonamide] | 3.88 | 1.21 |
| CN(C)[C@H]1C[C@@H](c2cccc(C(F)(F)F)c2)CC[C@@H]1N(C)c1cc(F)c(S(=O)(=O)Nc2ccncn2)cc1Cl [Example 51, 5-Chloro-4-(((1S,2S,4S)-2-(dimethylamino)-4-(3-(trifluoromethyl)phenyl)cyclohexyl)-(methyl)amino)-2-fluoro-N-(pyrimidin-4-yl)benzenesulfonamide formate] | 169 | 4.65 |
| CN(C)[C@H]1C[C@@H](c2cccc(C(F)(F)F)c2)CC[C@@H]1N1CCCc2cc(S(=O)(=O)Nc3ccncn3)c(F)cc21 [Example 54, 1-((1S,2S,4S)-2-(Dimethylamino)-4-(3-(trifluoromethyl)phenyl)cyclohexyl)-7-fluoro-N-(pyrimidin-4-yl)-1,2,3,4-tetrahydroquinoline-6-sulfonamide] | 0.604 | 1.41 |
| CN(C)[C@H]1C[C@@H](c2cccc(C(F)(F)F)c2)CC[C@@H]1N1C(=O)CCc2cc(S(=O)(=O)Nc3ccncn3)c(F)cc21 [Example 55, 1-((1S,2S,4S)-2-(Dimethylamino)-4-(3-(trifluoromethyl)phenyl)cyclohexyl)-7-fluoro-2-oxo-N-(pyrimidin-4-yl)-1,2,3,4-tetrahydroquinoline-6-sulfonamide] | 6.73 | 2.68 |
| CN(C)[C@H]1C[C@@H](c2cccc(C(F)(F)F)c2)CC[C@@H]1Oc1cc(F)c(S(=O)(=O)Nc2ccncn2)cc1Br [Example 56, 5-Bromo-4-(((1S,2S,4S)-2-(dimethylamino)-4-(3-(trifluoromethyl)phenyl)cyclohexyl)oxy)-2-fluoro-N-(pyrimidin-4-yl)benzenesulfonamide] | 1.92 | 0.528 |
| CN(C)[C@H]1C[C@@H](c2cccc(C(F)(F)F)c2)CC[C@@H]1Oc1ccc(S(=O)(=O)Nc2ccncn2)c(F)c1 [Example 57, 4-(((1S,2S,4S)-2-(Dimethylamino)-4-(3-(trifluoromethyl)phenyl)cyclohexyl)oxy)-2-fluoro-N-(pyrimidin-4-yl)benzenesulfonamide formate] | 35.3 | 2.59 |
| O=S(=O)(Nc1ccncn1)c1cc(F)c(O[C@H]2CC[C@H](c3cccc(C(F)(F)F)c3)C[C@@H]2N2CCCC2)cc1F [Example 58, 2,5-difluoro-N-(pyrimidin-4-yl)-4-(((1S,2S,4S)-2-(pyrrolidin-1-yl)-4-(3-(trifluoromethyl)-phenyl)cyclohexyl)oxy)benzenesulfonamide] | 22.7 | 2.73 |
